Like-named read-outs stand apart in the source and are kept apart here.
Tests used:
[1] = tested on: LPS-induced NO production in RAW 264.7 macrophage cells; assay: Inhibition of LPS-induced NO production (nitrite, Griess reagent); details: pretreated 1 h with compounds, then LPS (1 μg/mL) for 24 h, mean ± SD, three independent experiments
Description: Assays for NO production and cell viability were carried out as previously described [23]. […] The plates were pretreated with various concentrations of samples for 30 min and incubated with LPS (1 μg/mL) for 24 h. The amount of NO was determined by the nitrite concentration in cultured RAW264.7 macrophage supernatants using the Griess reagent. The cell viability was evaluated by MTT reduction.

[2] = in vitro; details: mouse
[3] = tested on: RAW 264.7 macrophages; assay: Cell viability by MTT reduction; details: for Cell toxicity / influence on cell viability (in words): RAW 264.7 cells treated with compounds
[4] = Mus musculus, RAW264.7, read-out: IC50 (concentration that caused 50% inhibition of NO production), LPS-activated RAW 264.7 macrophage cells
[5] = read-out: IC50 (concentration that caused 50% inhibition of NO production), LPS-activated RAW 264.7 macrophage cells

Row | Molecule | IC50 [1, 4] | IC50 [1, 5] | viability at 24 h, 100 µM [2] | Cell viability (%) ([3]; RAW 264.7 cells, at a concentration of 100 μM, MTT reduction, mean ± SD, three independent experiments) | viability at 24 h, 100 µM ([2]; RAW 264.7 macrophages) | Cell toxicity / influence on cell viability (in words) [3]
1 | c1cc2c(cc1[C@@H]1OCC3C1CO[C@H]3c1ccc3c(c1)OCO3)OCO2 (single isomer, unassigned; (-)) [Compound 2, (−)-sesamin] | 49.9 to 65.1 µM | 38.9 ± 2.86 µM | 95.5 ± 2.01% | – | – | –
2 | N=C(N)NN [Aminoguanidine, reference compound] | – | 6.51 ± 1.15 µM | – | 84.61 ± 2.50% | – | –
3 | COc1cc(OC)cc([C@@H](O)[C@H]2COC[C@@H]2Cc2ccc(O)c(O)c2)c1 [Compound 1, 3-(3',4'-dihydroxybenzyl)-4-[(7S),7-hydroxy-3,5-dimethoxybenzyl]tetrahydrofuran] | 49.9 ± 6.56 µM | – | – | – | 84.8 ± 2.71% | –
4 | O=C1OC[C@H](Cc2ccc3c(c2)OCO3)[C@H]1Cc1ccc2c(c1)OCO2 [Compound 3, (−)-hinokinin] | 21.6 ± 1.19 µM | – | – | – | 50.2 ± 1.55% | Some cell toxicity was observed
5 | COc1cc([C@H]2OC[C@@H]3[C@H]2CO[C@H]3c2ccc3c(c2)OCO3)ccc1O [Compound 6, (+)-piperitol] | 22.3 ± 1.1 µM | – | – | – | 84.1 ± 2.46% | –
6 | COc1cc([C@H]2OC[C@H]3[C@@H]2CO[C@@H]3c2ccc3c(c2)OCO3)ccc1O [Compound 7, (+)-xanthoxylol] | 27.6 µM | 21.6 ± 1.28 µM | – | – | 88.4 ± 3.71% | –
7 | COc1cc([C@H]2OC[C@H]3[C@@H]2CO[C@@H]3c2cc(OC)c(O[C@@H]3O[C@H](CO)[C@@H](O)[C@H](O)[C@H]3O)c(OC)c2)cc(OC)c1O [Compound 8, acanthoside B] | – | – | 82.4 ± 1.27% | – | – | –
8 | COc1cc([C@H]2OC[C@H]3[C@@H]2CO[C@@H]3c2ccc3c(c2)OCO3)ccc1O[C@@H]1O[C@H](CO)[C@@H](O)[C@H](O)[C@H]1O [Compound 9, simlexoside] | 53 ± 2.75 µM | – | – | – | 54.5 ± 2.21% | Some cell toxicity was observed
9 | (+)-pinoresinol [Compound 5] | – | 10.3 ± 2.37 µM | – | – | – | –

Reference: article PMC6270163, “Anti-inflammatory Lignans from the Fruits of Acanthopanax sessiliflorus” (Molecules, 2012)
